Reference: ChEMBL document CHEMBL3044841, “Synthesis and biological activities of Schiff bases of gabapentin with different aldehydes and ketones: a structureactivity relationship study” (Med Chem Res, 2012)
Values after ≈ are worked out from the molar mass of the structure shown.

Columns and labels:
[1] = tested on: Radical scavenging activity; test: Antioxidant activity assessed as DPPH free radical scavenging activity at 200 ug/ml after 30 min relative to control; assay type: functional
[2] = tested on: Radical scavenging activity; test: Antioxidant activity assessed as DPPH free radical scavenging activity at 100 ug/ml after 30 min relative to control; assay type: functional
[3] = tested on: Radical scavenging activity; test: Antioxidant activity assessed as DPPH free radical scavenging activity at 150 ug/ml after 30 min relative to control; assay type: functional
[4] = tested on: Radical scavenging activity; test: Antioxidant activity assessed as DPPH free radical scavenging activity after 30 min; assay type: functional
Rattus norvegicus [5] = test: Neurotoxicity in Rattus norvegicus Wistar (rat) assessed as minimal motor impairment at 100 mg/kg, po after 0.5 hr by rotorod test; assay type: toxicity, organism-based; design: dose 100 mg/kg, route oral; conditions: in vivo
Rattus norvegicus [6] = test: Neurotoxicity in Rattus norvegicus Wistar (rat) assessed as minimal motor impairment at 100 mg/kg, po after 2 hr by rotorod test relative to control; assay type: toxicity, organism-based; design: dose 100 mg/kg, route oral; conditions: in vivo
Rattus norvegicus [7] = test: Neurotoxicity in Rattus norvegicus Wistar (rat) assessed as minimal motor impairment at 100 mg/kg, po after 1 hr by rotorod test; assay type: toxicity, organism-based; design: dose 100 mg/kg, route oral; conditions: in vivo
Rattus norvegicus [8] = test: Anticonvulsant activity in Rattus norvegicus Wistar (rat) assessed as protection against maximal electroshock-induced seizure at 100 mg/kg, po administered 30 min before electroshock measured for 2 min relative to control; assay type: functional
Rattus norvegicus [9] = test: Neurotoxicity in Rattus norvegicus Wistar (rat) assessed as minimal motor impairment at 100 mg/kg, po after 2 hr by rotorod test; assay type: toxicity, organism-based; design: dose 100 mg/kg, route oral; conditions: in vivo
Rattus norvegicus [10] = test: Neurotoxicity in Rattus norvegicus Wistar (rat) assessed as minimal motor impairment at 100 mg/kg, po after 4 hr by rotorod test; assay type: toxicity, organism-based; design: dose 100 mg/kg, route oral; conditions: in vivo

SMILES | Activity [1] [%] | Activity [2] [%] | Activity [3] [%] | IC50 [4] | Activity (Rattus norvegicus [5]) | Activity (Rattus norvegicus [6]) [%] | Activity (Rattus norvegicus [7]) | Activity (Rattus norvegicus [8]) [%] | Activity (Rattus norvegicus [9]) | Activity (Rattus norvegicus [10])
O=C(O)CC1(C/N=C/c2ccccn2)CCCCC1 | 59.7 | 40 | 50.3 | 151.2 µg/mL (≈ 581 µM) | – | – | – | – | – | –
COc1ccc(/C=N/CC2(CC(=O)O)CCCCC2)cc1 | 69.5 | 49.6 | 59.8 | 94.2 µg/mL (≈ 326 µM) | – | – | – | – | – | –
CCOc1ccc(/C=N/CC2(CC(=O)O)CCCCC2)cc1 | 74.5 | 55.6 | 66.4 | 60.5 µg/mL (≈ 199 µM) | – | – | – | – | – | –
O=C(O)CC1(C/N=C/c2ccccc2Cl)CCCCC1 | 66.4 | 45.1 | 56.7 | 119.4 µg/mL (≈ 406 µM) | – | – | – | – | – | –
CCOc1ccc(/C(C)=N/CC2(CC(=O)O)CCCCC2)cc1 | 74.6 | 55.8 | 66.7 | 60.3 µg/mL (≈ 190 µM) | Non-toxic | 25 | Non-toxic | 12.74 | – | –
C/C=N/CC1(CC(=O)O)CCCCC1 | 49.5 | 31.4 | 41 | Not Active | – | – | – | – | – | –
O=C1O[C@H]([C@@H](O)CO)C(O)=C1O [ASCORBIC ACID] | 99.3 | 74.1 | 86.4 | 8.6 µg/mL (≈ 48.8 µM) | – | – | – | – | – | –
C/C(=N\CC1(CC(=O)O)CCCCC1)c1ccc2ccccc2c1 | 48.4 | 28.5 | 37.2 | Not Active | Non-toxic | 25 | Non-toxic | 0.42 | – | –
C=NCC1(CC(=O)O)CCCCC1 | 48.9 | 30.2 | 40.6 | Not Active | – | – | – | – | – | –
O=C1NC(=O)C(c2ccccc2)(c2ccccc2)N1 [PHENYTOIN] | – | – | – | – | Non-toxic | – | – | 79.29 | – | –
O=C(O)CC1(C/N=C/c2c(F)cccc2Cl)CCCCC1 | 69.1 | 47.2 | 58 | 104 µg/mL (≈ 334 µM) | – | – | – | – | – | –
C/C(=N\CC1(CC(=O)O)CCCCC1)c1c[nH]c2ccccc12 | 55.8 | 32.7 | 43.8 | 175 µg/mL (≈ 560 µM) | Non-toxic | 25 | Non-toxic | 24.63 | Non-toxic | –
O=C(O)CC1(C/N=C/c2ccccc2)CCCCC1 | 49.8 | 30.1 | 41.3 | Not Active | – | – | – | – | – | –
C/C(=N\CC1(CC(=O)O)CCCCC1)c1cccc(C#N)c1 | 49.8 | 30.6 | 41 | Not Active | Non-toxic | 25 | Non-toxic | 6.36 | – | –
C/C(=N\CC1(CC(=O)O)CCCCC1)c1ccccn1 | 51.6 | 31.1 | 42.5 | 194.8 µg/mL (≈ 710 µM) | Non-toxic | – | Non-toxic | 66.45 | Non-toxic | Non-toxic
O=C(O)CC1(C/N=C/c2ccc(F)cc2)CCCCC1 | 62.8 | 44.7 | 53.8 | 130.5 µg/mL (≈ 471 µM) | – | – | – | – | – | –
O=C(O)CC1(C/N=C/c2ccccc2O)CCCCC1 | 71.3 | 51 | 60.6 | 80.5 µg/mL (≈ 292 µM) | – | – | – | – | – | –
C/C(=N\CC1(CC(=O)O)CCCCC1)c1cccnc1 | 51 | 30.8 | 42.1 | 198.2 µg/mL (≈ 722 µM) | Non-toxic | – | Non-toxic | 65.61 | Non-toxic | Non-toxic
COc1cc(/C=N/CC2(CC(=O)O)CCCCC2)ccc1O | 78.2 | 57.2 | 64.9 | 59.6 µg/mL (≈ 195 µM) | – | – | – | – | – | –
